Results: US11999746B2, “Compounds” (GlaxoSmithKline Intellectual Property Development Limited, priority 2014, dated 2024)

Assays:
[1] = target: T1, recombinant human Lp-PLA2 (Homo sapiens, UniProt Q13093); experiment: (1a) PED6 assay, recombinant human Lp-PLA2 (rhLp-PLA2); assay type: biochemical; conditions: Examples 1-167 and 413-430 were tested here, one experiment or average of multiple experiments, read-out: rhLp-PLA2 (pIC50) (converted)
T1 sequence (Q13093 22-441): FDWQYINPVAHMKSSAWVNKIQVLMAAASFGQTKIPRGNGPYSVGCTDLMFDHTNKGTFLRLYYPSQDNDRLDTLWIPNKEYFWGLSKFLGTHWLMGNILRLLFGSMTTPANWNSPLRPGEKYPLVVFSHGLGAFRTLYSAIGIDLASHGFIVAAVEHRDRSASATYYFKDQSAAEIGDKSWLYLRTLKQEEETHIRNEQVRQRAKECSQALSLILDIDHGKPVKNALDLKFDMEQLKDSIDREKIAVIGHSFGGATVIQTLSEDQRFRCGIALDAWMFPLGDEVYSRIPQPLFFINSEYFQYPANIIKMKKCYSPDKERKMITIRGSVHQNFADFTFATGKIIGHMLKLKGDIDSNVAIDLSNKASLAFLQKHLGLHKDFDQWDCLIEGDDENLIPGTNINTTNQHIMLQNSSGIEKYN
How it was run: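 PED6 (2 μM final after 1:1 addition of 4 μM stock) cleavage by rhLp-PLA2 (4 nM working solution) in 50 mM HEPES pH 7.4, 150 mM NaCl, 1 mM CHAPS; compounds preincubated with enzyme 30 minutes, reaction 20 min at room temperature. Fluorescence at ex 480/em 540; pIC50 from curve fit.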

Lp-PLA2 in human plasma = target: T2, Lp-PLA2 in human plasma (Homo sapiens, UniProt Q13093); experiment: (3a) Lp-PLA2 human plasma Thio-PAF assay; assay type: biochemical; conditions: (3a) Thio-PAF assay, pooled human plasma; Examples 1-265 and 413-430 were tested here; read-out: pIC50 in the Lp-PLA2 human plasma assay (converted)
T2 construct: from tissue; host or cells: pooled human plasma
T2 sequence (Q13093 22-441): T1 sequence (Q13093 22-441)
How it was run: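 Pooled human plasma preincubated 30 min with serially diluted compound, then given 2-thio-PAF substrate with CPM and NEM in 50 mM HEPES pH 7.4, 150 mM NaCl, 1 mM CHAPS. Reaction quenched with TFA after 2 min; CPM thiol-adduct fluorescence read at ex 380/em 485 after 40 min; pIC50 reported.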

Structure (SMILES)	IC50 [1] [nM]	IC50 (Lp-PLA2 in human plasma) [nM]
O=c1nc(OCc2ccc(Oc3ccc(F)c(C(F)(F)F)c3)nc2)cc2n1CC1CCCN21 (centres unmarked) [Example E82, 3-((6-(4-fluoro-3-(trifluoromethyl)phenoxy)pyridin-3-yl)methoxy)-7,8,8a,9-tetrahydro pyrrolo[1′,2′:3,4]imidazo[1,2-c]pyrimidin-1(6H)-one]	≤ 100	≤ 10000
O=c1nc(OCc2cc(F)c(Oc3cccc(C(F)(F)F)c3)c(F)c2)cc2n1C[C@@H]1CCCN21 [Example E83, (S)-3-((3,5-difluoro-4-(3-(trifluoromethyl)phenoxy)benzyl)oxy)-7,8,8a,9-tetrahydropyrrolo[1′,2′:3, 4]imidazo[1,2-c]pyrimidin-1(6H)-one]	≤ 1	≤ 100
O=c1nc(OCc2ccc(Oc3ccc(F)c(C(F)(F)F)c3)nc2)cc2n1C[C@@H]1CCCN21 [Example E84, (S)-3-((6-(4-fluoro-3-(trifluoromethyl)phenoxy)pyridin-3-yl)methoxy)-7,8,8a,9-tetrahydro pyrrolo[1′,2′:3,4]imidazo[1,2-c]pyrimidin-1(6H)-one]	≤ 100	≤ 10000
N#Cc1cc(COc2cc3n(c(=O)n2)CC2CCCN32)ccc1Oc1cccc(F)c1 (centres unmarked) [Example E85, 2-(3-fluorophenoxy)-5-(((1-oxo-1,6,7,8,8a,9-hexahydropyrrolo[1,2′:3,4]imidazo[1,2-c]pyrimidin-3-yl)oxy)methyl)benzonitrile]	≤ 1	≤ 100
N#Cc1cc(COc2cc3n(c(=O)n2)C[C@@H]2CCCN32)ccc1Oc1cccc(F)c1 [Example E86, (S)-2-(3-fluorophenoxy)-5-(((1-oxo-1,6,7,8,8a,9-hexahydropyrrolo[1′,2′:3,4]imidazo[1,2-c]pyrimidin-3-yl)oxy)methyl)benzonitrile]	≤ 100	≤ 10000
N#Cc1cc(COc2cc3n(c(=O)n2)CC2CCCN32)ccc1Oc1cc(F)cc(F)c1 (centres unmarked) [Example E87, 2-(3,5-Difluorophenoxy)-5-(((1-oxo-1,6,7,8,8a,9-hexahydropyrrolo[1,2′:3,4]imidazo[1,2-c]pyrimidin-3-yl)oxy)methyl)benzonitrile]	≤ 1	≤ 100
N#Cc1cc(COc2cc3n(c(=O)n2)C[C@@H]2CCCN32)ccc1Oc1cc(F)cc(F)c1 [Example E88, (S)-2-(3,5-difluorophenoxy)-5-(((1-oxo-1,6,7,8,8a,9-hexahydropyrrolo[1′,2′:3,4]imidazo[1,2-c]pyrimidin-3-yl)oxy)methyl)benzonitrile]	≤ 1	≤ 10000
O=c1nc(OCc2cc(F)c(F)c(F)c2)cc2n1CC1CCCN21 (centres unmarked) [Example E89, 3-((3,4,5-Trifluorobenzyl)oxy)-7,8,8a,9-tetrahydropyrrolo[1′,2′:3,4]imidazo[1,2-c] pyrimidin-1(6H)-one]	≤ 100	≤ 10000
O=c1nc(OCc2cc(F)c(Oc3cnc(C(F)(F)F)nc3)c(F)c2)cc2n1CC1CCCN21 (centres unmarked) [Example E90, 3-((3,5-Difluoro-4-((2-(trifluoromethyl)pyrimidin-5-yl)oxy)benzyl)oxy)-7,8,8a,9-tetrahydro pyrrolo[1′,2′:3,4]imidazo[1,2-c]pyrimidin-1(6H)-one]	≤ 1	≤ 100
O=c1nc(OCc2cc(F)c(Oc3cnc(C(F)(F)F)nc3)c(F)c2)cc2n1C[C@@H]1CCCN21 [Example E91, (S)-3-((3,5-difluoro-4-((2-(trifluoromethyl)pyrimidin-5-yl)oxy)benzyl)oxy)-7,8,8a,9-tetra hydropyrrolo[1′,2′:3,4]imidazo[1,2-c]pyrimidin-1(6H)-one]	≤ 1	≤ 100
O=c1nc(OCc2cc(F)c(OC3CCCC(F)(F)C3)c(F)c2)cc2n1CC1CCCN21 (centres unmarked) [Example E92, 3-((4-((3,3-difluorocyclohexyl)oxy)-3,5-difluorobenzyl)oxy)-7,8,8a,9-tetrahydropyrrolo[1′,2′:3,4]imidazo[1,2-c]pyrimidin-1(6H)-one]	≤ 100	≤ 10000
O=c1nc(OCc2cc(F)c(OC3CCCC(F)(F)C3)c(F)c2)cc2n1C[C@@H]1CCCN21 (stereo partly drawn) [Example E93, (S)-3-((4-((3,3-difluorocyclohexyl)oxy)-3,5-difluorobenzyl)oxy)-7,8,8a,9-tetrahydropyrrolo[1′,2′:3,4]imidazo[1,2-c]pyrimidin-1(6H)-one]	≤ 100	≤ 10000
O=c1nc(OCc2cc(F)c(OC3CCC(F)(F)C3)c(F)c2)cc2n1CC1CCCN21 (centres unmarked) [Example E94, 3-((4-((3,3-difluorocyclopentyl)oxy)-3,5-difluorobenzyl)oxy)-7,8,8a,9-tetrahydropyrrolo[1′,2′:3,4]imidazo[1,2-c]pyrimidin-1(6H)-one]	≤ 100	≤ 10000
O=c1nc(OCc2cc(F)c(OC3CCC(F)(F)C3)c(F)c2)cc2n1C[C@@H]1CCCN21 (stereo partly drawn) [Example E95, (S)-3-((4-((3,3-difluorocyclopentyl)oxy)-3,5-difluorobenzyl)oxy)-7,8,8a,9-tetrahydropyrrolo[1′,2′:3,4]imidazo[1,2-c]pyrimidin-1(6H)-one]	≤ 100	≤ 10000
O=c1nc(OCc2cc(F)c(OC3CN(CCC(F)(F)F)C3)c(F)c2)cc2n1CC1CCCN21 (centres unmarked) [Example E96, 3-((3,5-Difluoro-4-((1-(3,3,3-trifluoropropyl)azetidin-3-yl)oxy)benzyl)oxy)-7,8,8a,9-tetrahy dropyrrolo[1′,2′:3,4]imidazo[1,2-c]pyrimidin-1(6H)-one]	≤ 100	≤ 10000
O=c1nc(OCc2cc(F)c(OC3CN(CCC(F)(F)F)C3)c(F)c2)cc2n1C[C@@H]1CCCN21 [Example E97, (S)-3-((3,5-difluoro-4-((1-(3,3,3-trifluoropropyl)azetidin-3-yl)oxy)benzyl)oxy)-7,8,8a,9-tetra hydropyrrolo[1′,2′:3,4]imidazo[1,2-c]pyrimidin-1(6H)-one]	≤ 100	≤ 10000
CCCCN1CC(Oc2c(F)cc(COc3cc4n(c(=O)n3)CC3CCCN43)cc2F)C1 (centres unmarked) [Example E98, 3-((4-((1-Butylazetidin-3-yl)oxy)-3,5-difluorobenzyl)oxy)-7,8,8a,9-tetrahydropyrrolo[1′,2′:3,4]imidazo[1,2-c]pyrimidin-1(6H)-one]	≤ 100	≤ 10000
O=c1nc(OCc2cc(F)c(CCCF)c(F)c2)cc2n1CC1CCCN21 (centres unmarked) [Example E99, 3-((3,5-Difluoro-4-(3-fluoropropyl)benzyl)oxy)-7,8,8a,9-tetrahydropyrrolo[1′,2′:3,4] imidazo[1,2-c]pyrimidin-1(6H)-one]	≤ 100	≤ 10000
O=c1nc(OCc2ccc(F)cc2F)cc2n1C[C@H]1CCCN21 [Example E100, (R)-3-((2,4-difluorobenzyl)oxy)-7,8,8a,9-tetrahydropyrrolo[1,2′:3,4]imidazo[1,2-c] pyrimidin-1(6H)-one]	≤ 100	≤ 10000
O=c1nc(OCc2cccc(F)c2F)cc2n1C[C@H]1CCCN21 [Example E101, (R)-3-((2,3-difluorobenzyl)oxy)-7,8,8a, 9-tetrahydropyrrolo[1′, 2′:3, 4]imidazo[1,2-c] pyrimidin-1(6H)-one]	≤ 100	≤ 10000
O=c1nc(OCc2cccc(F)c2)cc2n1C[C@H]1CCCN21 [Example E102, (R)-3-((3-fluorobenzyl)oxy)-7,8,8a,9-tetrahydropyrrolo[1′,2′:3,4]imidazo[1,2-c]pyrimidin-1(6H)-one]	≤ 100	≤ 10000
O=c1nc(OCc2cc(F)cc(F)c2)cc2n1C[C@H]1CCCN21 [Example E103, (R)-3-((3,5-difluorobenzyl)oxy)-7,8,8a,9-tetrahydropyrrolo[1,2′:3,4]imidazo[1,2-c] pyrimidin-1(6H)-one]	≤ 100	≤ 10000
O=c1nc(NCc2cccc(F)c2)cc2n1C[C@H]1CCCN21 [Example E104, (R)-3-((3-fluorobenzyl)amino)-7,8,8a,9-tetrahydropyrrolo[1′,2′:3,4]imidazo[1,2-c]pyrimidin-1(6H)-one]	≤ 100	≤ 10000
O=c1nc(OCc2cc(F)c(OC3(CCF)CC3)c(F)c2)cc2n1C[C@H]1CCCN21 [Example E105, (R)-3-((3,5-difluoro-4-(1-(2-fluoroethyl)cyclopropoxy)benzyl)oxy)-7,8,8a,9-tetrahydro pyrrolo[1′,2′:3,4]imidazo[1,2-c]pyrimidin-1(6H)-one]	≤ 100	≤ 10000
Cc1cc(Oc2c(F)cc(COc3cc4n(c(=O)n3)C[C@H]3CCCN43)cc2F)ccn1 [Example E106, (R)-3-((3,5-difluoro-4-((2-methylpyridin-4-yl)oxy)benzyl)oxy)-7,8,8a,9-tetrahydro pyrrolo[1′,2′:3,4]imidazo[1,2-c]pyrimidin-1(6H)-one]	≤ 100	≤ 10000
